Measured values: patent publication US20260022143A1, “Cyclic Peptide Inhibitors of IL-23” (JANSSEN PHARMACEUTICA NV, priority 2022, published 2026)
pIC50: −log10 of the molar value. Structures can show the parent of a compound that is named as a salt. Where two headings read alike, the source gives them in different places. Starred links: 1 amine or outer side, 2 acyl side, 3 side chain; linkers in the order of their positions; H or OH if unused. Positions of bridges follow the written chain, without caps; N, C: chain ends. Non-standard residues stand in square brackets, D forms with d. Residues, ends and D or L forms follow the SMILES beside them. Groups on a side chain read outwards from the residue. ξ: configuration not given here. *: point of attachment. Trp(7-(3-AcNH-Ph)) = CC(=O)Nc1cccc(-c2cccc3c(C[C@H](N)C(=O)O)c[nH]c23)c1; Me3N+(CH2)2O(CH2)2O(CH2)2CO = C[N+](C)(C)CCOCCOCCC(=O)*; CH2CH2OCH2CH2OCH2CH2NMe3+ = C[N+](C)(C)CCOCCOCC*; Trp(7-Me) = Cc1cccc2c(C[C@H](N)C(=O)O)c[nH]c12; dLys(Me3) = C[N+](C)(C)CCCC[C@@H](N)C(=O)O; Dab(NMeAc) = CC(=O)N(C)CC[C@H](N)C(=O)O; γGlu = O=C(O)[C@H](CCC(=O)[*:2])N[*:1]; 2Nal = N[C@@H](Cc1ccc2ccccc2c1)C(=O)O; AEF = NCCOc1ccc(C[C@H](N)C(=O)O)cc1; PEG6 = NCCOCCOCCOCCOCCOCCOCCC(=O)O; 3Pal = N[C@@H](Cc1cccnc1)C(=O)O; Myristoyl = CCCCCCCCCCCCCC(=O)*; X14 = C[N+](C)(C)CCc1cn(CC*)nn1; Lys(Me) = CNCCCC[C@H](N)C(=O)O; NMeK = CN[C@@H](CCCCN)C(=O)O; Pen = CC(C)(S)[C@H](N)C(=O)O; ξLys(Me) = CNCCCCC(N)C(=O)O; Thp = NC1(C(=O)O)CCOCC1; X3 = C[N+](C)(C)CCCCC*; AEEA = NCCOCCOCC(=O)O; Me2NCH2CH2 = CN(C)CC*; Tfa = O=C(C(F)(F)F)*; Sar = CNCC(=O)O

Key:
IL-23R = target: T1, IL-23R (Homo sapiens, UniProt Q5VWK5); assay: IL23R Reporter Assay; assay type: cell-based; details: HEK293 cells containing IL-23R, IL-12RP1 and STAT-inducible firefly luciferase reporter; 10 ng/mL IL-23 (EC90); 5 h at 37° C.; read-out: IL23R Reporter Assay
T1 construct: host or cells: HEK293
T1 sequence (Q5VWK5 24-629): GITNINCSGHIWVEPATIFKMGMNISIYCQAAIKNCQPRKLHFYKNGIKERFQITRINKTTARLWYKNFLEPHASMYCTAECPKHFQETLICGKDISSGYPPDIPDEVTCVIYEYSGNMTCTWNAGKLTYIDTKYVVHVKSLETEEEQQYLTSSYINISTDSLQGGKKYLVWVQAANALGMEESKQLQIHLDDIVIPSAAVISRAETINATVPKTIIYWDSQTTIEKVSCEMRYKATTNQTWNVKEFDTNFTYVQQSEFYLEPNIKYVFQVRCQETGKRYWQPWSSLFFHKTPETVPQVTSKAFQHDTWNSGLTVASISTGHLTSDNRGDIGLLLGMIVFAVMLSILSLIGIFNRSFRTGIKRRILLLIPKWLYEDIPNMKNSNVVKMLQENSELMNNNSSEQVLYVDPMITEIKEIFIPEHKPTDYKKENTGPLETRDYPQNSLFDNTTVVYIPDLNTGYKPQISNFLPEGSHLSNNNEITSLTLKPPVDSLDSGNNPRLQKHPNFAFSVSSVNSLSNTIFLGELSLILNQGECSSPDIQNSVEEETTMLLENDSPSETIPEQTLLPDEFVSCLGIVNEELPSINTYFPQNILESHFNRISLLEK

[1] = Exposed Polar Surface Area (EPSA); assay type: physicochemical; details: SFC on Chirex 3014 column, sample 1 mM DMSO stock
Procedure, shortened: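 Compounds, as 1 mM DMSO stock, were injected in duplicate onto an SFC Chirex 3014 column at 35 °C and eluted with a CO2/methanol (20 mM ammonium formate) gradient. EPSA values in Å^2 were derived from retention times using a linear fit to eight calibration standards, reinjected every 20 compounds.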

pIC50 (IL-23R)	EPSA ([1]; read-out: EPSA)	EPSA [1]	SMILES
6.19	153 A^2	–	CC(=O)N(C)CCCCC(NC(=O)C1(NC(=O)[C@H](Cc2ccc3ccccc3c2)NC(=O)[C@H](Cc2ccc(OCCOCCOCC[N+](C)(C)C)cc2)NC(=O)[C@H]2NC(=O)[C@H](CCCCN(C)C(C)=O)NC(=O)[C@H](Cc3c[nH]c4c(C)cccc34)NC(=O)[C@H]([C@@H](C)O)NC(=O)[C@H](CC(=O)N(C)C)NC(=O)[C@@H](NC(=O)CCOCCOCC[N+](C)(C)C)C(C)(C)SSC2(C)C)CCOCC1)C(=O)N[C@@H](CC(N)=O)C(=O)N[C@@H](Cc1ccccc1)C(=O)N(C)CC(=O)N(C)C (some centres unmarked) [compound 573, cPEG3aCO-Pen(3)-N(N(Me)2)-T-7MeW-K(NMeAc)-Pen(3)-APEG3F-2Nal-THP-K(NMeAc)-N-F-Sar-CON(Me)2] ({Me3N+(CH2)2O(CH2)2O(CH2)2CO}-[Pen]D(NMe2)T[Trp(7-Me)][Lys(Me)](Ac)[Pen]Y(CH2CH2OCH2CH2OCH2CH2NMe3+)[2Nal][Thp][ξLys(Me)](Ac)NF[Sar]-NMe2; disulfide 1-6)
8.52	147 A^2	–	CC(=O)N(C)CCCC[C@@H]1NC(=O)[C@H](Cc2c[nH]c3c(C)cccc23)NC(=O)[C@H]([C@@H](C)O)NC(=O)[C@H](CC(=O)N(C)C)NC(=O)[C@@H](NC(=O)CCOCCOCC[N+](C)(C)C)C(C)(C)SSC(C)(C)[C@@H](C(=O)N[C@@H](Cc2ccc(OCCN)cc2)C(=O)N[C@@H](Cc2ccc3ccccc3c2)C(=O)NC2(C(=O)N[C@@H](CCN(C)C(C)=O)C(=O)N[C@@H](CC(N)=O)C(=O)N[C@@H](Cc3cccnc3)C(=O)N(C)CC(=O)N(C)C)CCC(F)(F)C2)NC1=O (single isomer, unassigned) [compound 179, cPEG3aCO-Pen(3)-N(N(Me)2)-T-7MeW-K(NMeAc)-Pen(3)-AEF-2Nal-diFCpx-Dab(NMeAc)-N-3Pya-Sar-CON(Me)2]
8.43	–	165.96 Å^2	CC(=O)NCCCC[C@@H]1NC(=O)[C@H](Cc2c[nH]c3c(C)cccc23)NC(=O)[C@H]([C@@H](C)O)NC(=O)[C@H](CC(N)=O)NC(=O)[C@@H](NC(C)=O)C(C)(C)SSC(C)(C)[C@@H](C(=O)N[C@@H](Cc2ccc(OCC3CCC([N+](C)(C)C)CC3)cc2)C(=O)N[C@@H](Cc2ccc3ccccc3c2)C(=O)NC2(C(=O)N[C@@H](CCCCNC(C)=O)C(=O)N[C@@H](CC(N)=O)C(=O)N[C@@H](Cc3cccnc3)C(=O)N(C)CC(N)=O)CCOCC2)NC1=O (single isomer, unassigned) [compound 531, MeCO-Pen(3)-N-T-7MeW-K(Ac)-Pen(3)-ACHMF(R*, S*)-2Nal-THP-K(Ac)-N-3Pya-Sar-CONH2]
8.68	146 A^2	–	CC(=O)N(C)CC[C@@H]1NC(=O)[C@H](Cc2c[nH]c3c(C)cccc23)NC(=O)[C@H]([C@@H](C)O)NC(=O)[C@H](CC(N)=O)NC(=O)[C@@H](NC(=O)C(F)(F)F)C(C)(C)SSC(C)(C)[C@@H](C(=O)N[C@@H](Cc2ccc(OCCN(C)C)cc2)C(=O)N[C@@H](Cc2ccc3ccccc3c2)C(=O)NC2(C(=O)N[C@@H](CCC(=O)N(C)C)C(=O)N[C@@H](CC(N)=O)C(=O)N[C@@H](Cc3cccnc3)C(=O)N(C)CC(N)=O)CCOCC2)NC1=O [compound 71] (Tfa-[Pen]NT[Trp(7-Me)][Dab(NMeAc)][Pen]Y(Me2NCH2CH2)[2Nal][Thp]E(NMe2)N[3Pal][Sar]-NH2; disulfide 1-6 (inferred))
8.21	184 A^2	–	CC(=O)NCCCC[C@@H]1NC(=O)[C@H](Cc2c[nH]c3c(C)cccc23)NC(=O)[C@H]([C@@H](C)O)NC(=O)[C@H](CC(N)=O)NC(=O)[C@@H](NC(C)=O)C(C)(C)SSC(C)(C)[C@@H](C(=O)N[C@@H](Cc2ccc(OCCCCC[N+](C)(C)C)cc2)C(=O)N[C@@H](Cc2ccc3ccccc3c2)C(=O)NC2(C(=O)N[C@@H](CCCCNC(=O)COc3ccc(-c4ccc(F)cc4F)cc3C(=O)O)C(=O)N[C@@H](CC(N)=O)C(=O)N[C@@H](Cc3cccnc3)C(=O)N(C)CC(N)=O)CCOCC2)NC1=O [compound 526, MeCO-Pen(3)-N-T-7MeW-K(Ac)-Pen(3)-TMAPF-2Nal-THP-K(DFN)-N-3Pya-Sar-CONH2]
7.92	168 A^2	–	CCCCCCCCCCCCCC(=O)N[C@@H](CCC(=O)NCCOCCOCCOCCOCCOCCOCCC(=O)NCCOCCOCC(=O)NCCCC[C@@H](C(N)=O)N(C)C(=O)[C@H](Cc1cccnc1)NC(=O)[C@H](CC(N)=O)NC(=O)[C@H](CCCCN(C)C(C)=O)NC(=O)C1(NC(=O)[C@H](Cc2ccc3ccccc3c2)NC(=O)[C@H](Cc2ccc(OCCCCC[N+](C)(C)C)cc2)NC(=O)[C@H]2NC(=O)[C@H](CCCCNC(C)=O)NC(=O)[C@H](Cc3c[nH]c4c(C)cccc34)NC(=O)[C@H]([C@@H](C)O)NC(=O)[C@H](CC(=O)N(C)C)NC(=O)[C@@H](NC(=O)CCOCCOCC[N+](C)(C)C)C(C)(C)SSC2(C)C)CCOCC1)C(=O)O [compound 361, cPEG3aCO-Pen(3)-N(N(Me)2)-T-7MeW-K(Ac)-Pen(3)-TMAPF-2Nal-THP-K(NMeac)-N-3Pya-NMeK(PEG2PEG6gEC14)-CONH2] ({Me3N+(CH2)2O(CH2)2O(CH2)2CO}-[Pen]D(NMe2)T[Trp(7-Me)]K(Ac)[Pen]Y(X3)[2Nal][Thp][Lys(Me)](Ac)N[3Pal][NMeK]([AEEA-PEG6-γGlu-Myristoyl])-NH2; disulfide 1-6)
8.49	149 A^2	–	CC(=O)N(C)CCCC[C@@H]1NC(=O)[C@H](Cc2c[nH]c3c(C)cccc23)NC(=O)[C@H]([C@@H](C)O)NC(=O)[C@H](CC(=O)N(C)C)NC(=O)[C@@H](NC(=O)CCOCCOCC[N+](C)(C)C)C(C)(C)SSC(C)(C)[C@@H](C(=O)N[C@@H](Cc2ccc(OCCn3cc(CC[N+](C)(C)C)nn3)cc2)C(=O)N[C@@H](Cc2ccc3ccccc3c2)C(=O)NC2(C(=O)N[C@@H](CCCCN(C)C(C)=O)C(=O)N[C@@H](CC(N)=O)C(=O)N[C@@H](Cc3cccnc3)C(=O)N(C)CC(=O)N(C)C)CCOCC2)NC1=O [compound 286, cPEG3aCO-Pen(3)-N(N(Me)2)-T-7MeW-K(NMeAc)-Pen(3)-Y(OTzlCh)-2Nal-THP-K(NMeAc)-N-3Pya-Sar-CON(Me)2] ({Me3N+(CH2)2O(CH2)2O(CH2)2CO}-[Pen]D(NMe2)T[Trp(7-Me)][Lys(Me)](Ac)[Pen]Y(X14)[2Nal][Thp][Lys(Me)](Ac)N[3Pal][Sar]-NMe2; disulfide 1-6)
8.85	192 A^2	–	CC(=O)NCCCC[C@@H]1NC(=O)[C@H](Cc2c[nH]c3c(-c4cccc(NC(C)=O)c4)cccc23)NC(=O)[C@H]([C@@H](C)O)NC(=O)[C@H](CC(N)=O)NC(=O)[C@@H](NC(=O)[C@@H](CCCC[N+](C)(C)C)NC(C)=O)C(C)(C)SSC(C)(C)[C@@H](C(=O)N[C@@H](Cc2ccc(OCCN)cc2)C(=O)N[C@@H](Cc2ccc3ccccc3c2)C(=O)NC2(C(=O)N[C@@H](CCC(=O)O)C(=O)N[C@@H](CC(N)=O)C(=O)N[C@@H](Cc3cccnc3)C(=O)N(C)CC(N)=O)CCOCC2)NC1=O [compound 461] (Ac-[dLys(Me3)][Pen]NT[Trp(7-(3-AcNH-Ph))]K(Ac)[Pen][AEF][2Nal][Thp]EN[3Pal][Sar]-NH2; disulfide 2-7 (inferred))
7.40	146 A^2	–	CC(=O)NCCCC[C@@H]1NC(=O)[C@H](Cc2c[nH]c3c(C)cccc23)NC(=O)[C@H]([C@@H](C)O)NC(=O)[C@H](CC(N)=O)NC(=O)[C@@H](NC(C)=O)C(C)(C)SSC(C)(C)[C@@H](C(=O)N[C@@H](Cn2cc(CC[N+](C)(C)C)nn2)C(=O)N[C@@H](Cc2ccc3ccccc3c2)C(=O)NC2(C(=O)N[C@@H](CCCCNC(C)=O)C(=O)N[C@@H](CC(N)=O)C(=O)N[C@@H](Cc3cccnc3)C(=O)N(C)CC(N)=O)CCOCC2)NC1=O [compound 253]
8.68	191 A^2	–	CC(=O)NCCCC[C@@H]1NC(=O)[C@H](Cc2c[nH]c3c(-c4cccc(NC(C)=O)c4)cccc23)NC(=O)[C@H]([C@@H](C)O)NC(=O)[C@H](CC(N)=O)NC(=O)[C@@H](NC(=O)CCOCCOCC[N+](C)(C)C)C(C)(C)SSC(C)(C)[C@@H](C(=O)N[C@@H](Cc2ccc(OCCN)cc2)C(=O)N[C@@H](Cc2ccc3ccccc3c2)C(=O)NC2(C(=O)N[C@@H](CCC(=O)O)C(=O)N[C@@H](CC(N)=O)C(=O)N[C@@H](Cc3cccnc3)C(=O)N(C)CC(N)=O)CCOCC2)NC1=O [compound 443, cPEG3aCO-Pen(3)-N-T-7(3NAcPh)W-K(Ac)-Pen(3)-AEF-2Nal-THP-E-N-3Pya-Sar-CONH2] ({Me3N+(CH2)2O(CH2)2O(CH2)2CO}-[Pen]NT[Trp(7-(3-AcNH-Ph))]K(Ac)[Pen][AEF][2Nal][Thp]EN[3Pal][Sar]-NH2; disulfide 1-6)
